From patent US20130338228A1, “METHODS FOR FA[…] RECOVERY AFTER A PERIOD OF DISUSE USING BETA-HYDROXY-BETA-METHYLBUTYRATE” (ABBOTT LABORATORIES, priority 2010, published 2013)

How the values were obtained:
Format in all cases: in vivo, Fischer 344× Brown Norway rats
Bax = assay: Western immunoblot of Bax in hind limb muscles
Procedure: (§1) Sixty-four aged (34 months of age) Fischer 344× Brown Norway rats are randomly assigned to a hind limb suspended (HS) group or a reloaded (R) group. The rats in each test group receive either: (1) 1 ml Ca-HMB (170 mg/ml distilled water); or (2) 1 ml of distilled water by gavage feeding per day. After one week, thirty-two rats (eight rats from the HS group receiving Ca-HMB; eight rats from the R group receiving Ca-HMB; eight rats from the HS group receiving water; and eight rats from the R group receiving water) are designated as part of the control groups (HS Control Group (16 rats) or R Control Group (16 rats)). […]
(§2) The remaining thirty-two rats (16 rats in HS Group and 16 rats in R Group) continue to receive either Ca-HMB or water and are subjected to hind limb suspension for 14 days. […] The suspension height is monitored and adjusted to prevent contact between the hind limb and any supportive surface of the cage. […]
(§3) Approximately seventy-five […] of muscle is homogenized in ice-cold RIPA buffer (1% Triton x-100, 150 mM NaCl, 5 mM EDTA, 10 mM Tris; pH 7.4), containing protease inhibitors (P8340, Sigma-Aldrich, St. Louis, Mo.), and phosphatase inhibitors (P2850; P5726, Sigma-Aldrich). The muscle homogenates are centrifuged at 1000×g for 5 minutes at 4° C., and the protein content of the supernatant is measured (500-0116; BioRad, Hercules, Calif.). […]

cleaved caspase-3 = assay: Western immunoblot of cleaved caspase-3 in hind limb muscles
Procedure: as §1, §2, §3

[1] = tested on: satellite cells/muscle precursor cells; assay: Activation of satellite cells by BrdU labeling during reloading
Procedure: as §1, §2
Activated, proliferated satellite cells/muscle precursor cells were identified by immunofluorescence staining on BrdU and laminin as described previously (Siu 2005). […] The sections were finally stained with 4′,6-diamidino-2-phenylindole (DAPI) and examined under a fluorescence microscope with excitation wavelengths of 330-380 nm for DAPI blue fluorescence, 485-585 nm for Cy3 red fluorescence, and 450-490 nm for fluorescein green fluorescence. […]

[2] = tested on: soleus and plantaris muscle fibers; assay: Muscle fiber cross sectional area (CSA) by planimetry
Procedure: (§4) Sixty-four aged (34 months of age) Fischer 344× Brown Norway rats are randomly assigned to a hind limb suspended (HS) group or a reloaded (R) group. The rats in each test group receive either: (1) 1 ml Ca-HMB (170 mg/ml distilled water); or (2) 1 ml of distilled water by gavage feeding per day. After one week, thirty-two rats (eight rats from the HS group receiving Ca-HMB; eight rats from the R group receiving Ca-HMB; eight rats from the HS group receiving water; and eight rats from the R group receiving water) are designated as part of the control groups (HS Control Group (16 rats) or R Control Group (16 rats)). The control groups maintain normal mobility throughout the test period, and are allowed to move freely around their cages. Data is collected from the HS Control Group after 14 days from initiation of the study prior to and following sacrifice. Data is collected from the R Control Group after 28 days from initiation of the study prior to and following sacrifice.
(§5) The remaining thirty-two rats (16 rats in HS Group and 16 rats in R Group) continue to receive either Ca-HMB or water and are subjected to hind limb suspension for 14 days. For the hind limb suspension, tape is applied along the proximal one-third of the tail and then placed through a wire harness that is attached to a fishlike swivel at the top of a specially designed hind limb suspension cage. The suspension allowed the rats 360° of movement around the cage. Sterile gauze is wrapped around the tape and is subsequently covered with a thermoplastic material. […] The suspension height is monitored and adjusted to prevent contact between the hind limb and any supportive surface of the cage. […] The forelimbs maintain contact with a grid floor, which allows the animals to move, groom themselves, and obtain food and water freely.
(§6) After 14 days of hind limb suspension, the hind limbs are released. The R Group is further allowed normal cage ambulation for an additional 14 days and then data is collected prior to and following sacrifice.
Muscle fiber cross sectional area (CSA) is determined by planimetry from 750-1200 fibers that are obtained from four non-overlapping regions of each tissue cross-section is stained for lamina. Fiber CSA is calculated by the Image J software.

cleaved caspase-9 = assay: Western immunoblot of cleaved caspase-9 in hind limb muscles; conditions: plantaris and soleus muscles after both hind limb suspension and reloading, vs water-treated
Procedure: as §1, §2, §3

Bcl-2 = assay: Western immunoblot of Bcl-2 in hind limb muscles; conditions: plantaris and soleus after either hind limb suspension or reloading (both conditions increase Bcl-2 by about 100%)
Procedure: as §1, §2, §3

[3] = tested on: soleus and plantaris muscles; assay: Muscle wet weight after hind limb suspension and reloading
Procedure: as §4, §5, §6
(§7) Each animal is weighed at the beginning of the experiment, following 14 days of hind limb suspension and after 14 days of reloading. With the animals deeply anesthetized, the soleus and the plantaris muscles are removed from both limbs, then blotted, and weighed. Animals are euthanized following this procedure. A block obtained from the mid-belly of the muscle is embedded in optimal cutting temperature (OCT) compound (Tissue-Tek; Andwin Scientific, Addison, Ill.), snap frozen in liquid nitrogen-cooled isopentane, and stored at −80° C. The remainder of the muscle is snap frozen in liquid nitrogen and stored at −80° C. until needed for subsequent analyses.

[4] = Body weight of aged rats after hind limb suspension and reloading
Procedure: as §4, §5, §6, §7

[5] = tested on: TUNEL positive myonuclei in plantaris and soleus muscles; assay: Apoptotic myonuclei identified by TUNEL labeling (apoptotic index)
Procedure: as §4
The remaining thirty-two rats (16 rats in HS Group and 16 rats in R Group) continue to receive either Ca-HMB or water and are subjected to hind limb suspension for 14 days. For the hind limb suspension, tape is applied along the proximal one-third of the tail and then placed through a wire harness that is attached to a fishlike swivel at the top of a specially designed hind limb suspension cage. […] The suspension height is monitored and adjusted to prevent contact between the hind limb and any supportive surface of the cage. […]
10-μm-thick frozen cross sections from soleus and plantaris muscles are mounted on charged microscope slides (Fisher Scientific, Pittsburgh, Pa.). […] The number of TUNEL- and DAPI-positive nuclei that are immediately adjacent to, or beneath, the basal lamina is counted. Data is expressed as an apoptotic index, which is calculated by counting the number of TUNEL-positive nuclei divided by the total number of nuclei (i.e., DAPI-positive nuclei). The apoptotic index is determined from ˜1200 fibers, which are obtained from four non-overlapping regions of each tissue cross section.

[6] = tested on: plantar flexor muscle group; assay: Maximal isometric force measurement after hind limb suspension and reloading
Procedure: as §4
The remaining thirty-two rats (16 rats in HS Group and 16 rats in R Group) continue to receive either Ca-HMB or water and are subjected to hind limb suspension for 14 days. For the hind limb suspension, tape is applied along the proximal one-third of the tail and then placed through a wire harness that is attached to a fishlike swivel at the top of a specially designed hind limb suspension cage. The suspension allowed the rats 360° of movement around the cage. […] The suspension height is monitored and adjusted to prevent contact between the hind limb and any supportive surface of the cage. […]
Force measurements: All force measurements are made while the animals are anesthetized with 98% oxygen and 2% isoflurane gas. […] The maximal isometric force of the plantar flexor muscle group is evaluated by stimulating the tibial nerve using supramaximal square wave pulses that are 4 V, 100 Hz for a duration of 3 seconds using a SD9 stimulator (Grass Medical Instruments, Quincy, Mass.). Maximal force is determined using Labview based software. […]

[7] = plantaris and soleus muscles after both hind limb suspension and reloading, vs water-treated
[8] = HS induced, stated for both HMB and vehicle-treated animals, P<0.001

SMILES: CC(C)(O)CC(=O)O [HMB, beta-hydroxy-beta-methylbutyrate]
- Bax protein abundance in control muscles (Bax; control muscles of ambulatory animals (HS Con and R Con), FIG. 7B): reduces the protein abundance
- Bax protein abundance (Bax; [7]): suppresses the protein abundance
- cleaved caspase-3 protein abundance in control muscles (cleaved caspase-3; control muscles of ambulatory animals (HS Con and R Con), FIG. 9B): reduces the protein abundance
- cleaved caspase-3 protein abundance (cleaved caspase-3; [7]): suppresses the protein abundance
- number of BrdU positive nuclei relative to vehicle-treated rats ([1]; during recovery from muscle disuse): almost twice the number
- number of BrdU-positive nuclei to total nuclei ([1]; soleus, 14 day recovery period, mean+/−SE, p=0.001 vs control): 8.1+/−2%
- HS-induced decrease in fiber CSA, plantaris ([2]; after HS, p<0.05 vs vehicle): 26.4%
- HS-induced decrease in fiber CSA, soleus ([2]; after HS, p<0.05 vs vehicle): 32.5%
- frequency of fibers<1500 μm^2 ([2]; plantaris and soleus, recovered for 14 days following HS, Chi-squared analyses): significantly greater in the plantaris and soleus muscles of vehicle-treated animals as compared to HMB-treated animals
- effect on fiber CSA after reloading as compared to HS ([2]; plantaris or soleus muscles, after 14 days of reloading): did not further improve
- cleaved caspase-9 protein abundance (cleaved caspase-9): suppresses the protein abundance
- Bcl-2 protein, difference between HMB and water-treated muscles (Bcl-2): may not be a significant difference
- decrease in wet weight of the plantaris muscle [3, 8]: 19%
- decrease in wet weight of the soleus muscle [3, 8]: 15%
- effect on extent of HS-induced atrophy (muscle wet weight) ([3]; after 14 days of HS, relative to vehicle): did not significantly reduce
- effect on plantaris muscle weight ([3]; after 14 days of reloading relative to vehicle-treated animals): significantly improved
- effect against HS-induced loss in the soleus muscle (wet weight) ([3]; after HS, relative to vehicle-treated animals): did not provide protective effect
- body weight lowered by hind limb suspension ([4]; after 14 days of hind limb suspension, stated for both the HMB and water-treated groups): about 15%
- decrease in body weight compared to the body weight of control animals ([4]; after 14 days of reloading): 4%
- body weight reduced relative to the first experimental day ([4]; control rats (normal mobility) treated for five weeks): 7%
- body weight reduced relative to the first experimental day ([4]; control rats (normal mobility) treated for three weeks): 1.3%
- increase of apoptotic index by HS compared to ambulatory control animals, plantaris ([5]; after HS, p<0.05): 3.0 fold
- increase of apoptotic index by HS compared to ambulatory control animals, soleus ([5]; after HS, p<0.05): 1.8 fold
- effect on TUNEL labeling in myonuclei of reloaded muscles ([5]; reloaded plantaris and soleus muscles): continued to suppress TUNEL labeling
- reduction of maximal in vivo plantarflexor isometric force by hind limb suspension ([6]; after 14 days of hind limb suspension): 23.7%
- loss in maximal isometric plantarflexor force compared to isometric force in control animals ([6]; after reloading, P<0.01 vs water-treated rats): 27.3%
- effect on loss of force ([6]; hind limb suspension and reloading): attenuate the loss of force
